The source of these data is the METLIN SMRT retention time set (Domingo-Almenara et al. 2019).

The structures appear in SMILES notation.

A short description of the data set: gradient 5% acetonitrile 3 min, to 50% in 2 min, to 85% in 15 min, held 3 min, 100 µL/min. The note with it: column: Zorbax Extend-C18 2.1 x 50 mm; eluents: water / acetonitrile, 0.1% formic acid. An outline of the steps:
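The mobile phases were water and acetonitrile, each with 0.1% formic acid, pumped at 100 μL/min through a Zorbax Extend-C18 column (2.1 × 50 mm, 1.8 μm). Pure standards were injected as mixtures of ~100 molecules and detected by a quadrupole time-of-flight mass spectrometer in positive and negative ionization mode. Retention time came from computationally picked adduct peaks, each inspected by hand.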
Take `CCOc1cccc2c1OC1(CCN(C(C)=O)CC1)N1N=C(c3ccc4c(c3)OCO4)CC21` (stereo not drawn): the RP-LC retention time was 826 s.
The same measure for `CC(=O)N1c2ccc(S(=O)(=O)N3CCCCC3)cc2CC1C(=O)NCCN1CCCC1` (stereo not drawn): 592 s; for `CNC(=O)[C@H]1O[C@@H](n2cnc3c(NCc4ccc(N)cc4)ncnc32)C(O)[C@H]1O` (stereo partly drawn): 569 s.
In the case of `COc1cccc(CNC(=O)C2(C)CCCN(C(=O)NCCc3ccccc3)C2)c1` (stereo not drawn), the RP-LC retention time came out at 855 s.
The same measure for `Cc1nc(-c2ccccc2)sc1C(=O)Nc1nc(-c2ccccc2)c(C)s1`: 1210 s; for `Cc1oc(-c2ccc(C(=O)NCC3COCCO3)cc2)nc1CN1CCc2ccccc21` (stereo not drawn): 876 s.
On to `COc1ccc(NC(=O)C2CCCN(Cc3nc(-c4cccs4)no3)C2)cc1Cl` (stereo not drawn), for which the RP-LC retention time was determined as 728 s.
As for `O=C(Nc1c(-c2ccccc2)nc2ccccn12)c1ccc(Cl)cc1Cl`, the figure is 677 s.
The same measure for `COc1cccc(NC(=O)Nc2cc(-c3cn4cccnc4n3)ccc2OC)c1`: 654 s; for `Cc1cc(C)c(NC(=O)CN2C(=O)NC3(CCC(C)CC3)C2=O)c(C)c1` (stereo not drawn): 570 s.
The same measure for `CC(C)CC(=O)NCC12CCC=C1N(C)C(=O)CC2` (stereo not drawn): 691 s.
`CC(=O)OC1CCN(C(=O)NC(C)C)CC1` registered an RP-LC retention time of 621 s.
`O=C(NCc1ccccc1)NCC1Cn2cccc2C(=O)N1Cc1ccccc1` (stereo not drawn) gave an RP-LC retention time of 782 s.
The compound `O=C(Nc1nc(-c2ccc3c(c2)OCO3)cs1)c1ccco1` came in with an RP-LC retention time of 798 s.
As to `O=C(Cn1cc(C(=O)c2ccco2)c2ccccc21)NCc1ccc2c(c1)OCCCO2`, the RP-LC retention time was found to be 858 s.
The same measure for `CC1CCCCN1CCNC(=O)c1cc(=O)n2c(nc3ccccc32)s1` (stereo not drawn): 626 s; for `COc1ccc2nc(C(=O)NCc3cccc(Br)c3)cn2n1`: 896 s; for `Cc1nnc(-c2ccc3ccn(CC(=O)N4CCCc5ccccc54)c3c2)o1`: 814 s.
The same measure for `CCCC(=O)N1CCCC(c2nc(CNC(=O)C(C)C)cs2)C1` (stereo not drawn): 671 s; for `Cc1cccc2sc(NC(=O)CNC(=O)c3ccc(=O)[nH]c3)nc12`: 613 s.
The same measure for `CCCCN(C)C(=O)CC1Sc2ncccc2N(CC(C)C)C1=O` (stereo not drawn): 876 s; for `COc1ccc(CC(C)(O)CNC(=O)C2CC2)cc1` (stereo not drawn): 631 s; for `CCc1nc2ccc(-c3noc(-c4cccc(C#N)c4)n3)cc2n1CC`: 710 s.
On to `Cc1ccc(Nc2nc3ccncc3n(C(C)C)c2=O)cc1C`, for which the RP-LC retention time came out at 716 s.
The same measure for `COc1nn(C)cc1C(=O)NCC(c1ccco1)N1CCN(c2ccc(F)cc2)CC1` (stereo not drawn): 581 s; for `CCN(CC)CCNC(=O)c1ccc(CS(=O)(=O)c2ccc(Br)cc2)o1`: 634 s; for `COc1cc(NC(=O)N2CCC(n3c(CC(C)C)nc4cccnc43)CC2)cc(OC)c1OC`: 662 s.
Compound `CCC(=O)N1CCc2sc(C(=O)N3CCN(c4ccccc4)CC3)cc2C1` came in with an RP-LC retention time of 794 s.
The same measure for `O=C(O)c1ccc2c(c1)CC(=O)N2Cc1cccc(F)c1`: 729 s; for `O=c1c2cnc3ncnn3c2ccn1C1CC1`: 583 s.
As for `COC(=O)Cn1nc(-c2nc(-c3cccc(Cl)c3)no2)ccc1=O`, the figure is 960 s.
Turning to `O=S(=O)(c1cccc(-c2nnc(-c3ccc(F)cc3)o2)c1)N1CCOCC1`, the RP-LC retention time came out at 892 s.
As for `CCOC(=O)c1cc(S(=O)(=O)N2CCCC2C(=O)Nc2cc(Cl)c(OC)cc2OC)cn1C` (stereo not drawn), the figure is 1010 s.
